Key:
[1] = test system: Human immunodeficiency virus 1; assay: MMV: HIV NL4-3 CXCR4-tropic replication-competent virus, NO washout, P24 ELISA Day 7 pi, U87-CD4-CXCR4, % inhibition at 5 mM compound; type: functional; parameters: dose or concentration left out as unconfirmed; details: Human immunodeficiency virus 1, NL4-3, U87.CD4.CXCR4, 168 h
[2] = MMV: MTT Cytotoxicity Assay Day 3 pi, U87-CD4-CXCR4 cells, % cell death @ 5mM compound; type: toxicity, cell-based; details: human, u87-cd4-cxcr4, 5000 µM
[3] = MMV: MTT Cytotoxicity Assay Day 7 pi of Assay #6 (compound washed out Day 1 pi), U87-CD4-CCR5 cells, % cell death @ 5mM compound; type: toxicity, cell-based; details: human, u87-cd4-ccr5, 5000 µM
[4] = MMV: MTT Cytotoxicity Assay Day 3 pi, U87-CD4-CCR5 cells, % cell death @ 5mM compound; type: toxicity, cell-based; details: human, u87-cd4-ccr5, 5000 µM
[5] = MMV: MTT Cytotoxicity Assay Day 7 pi of Assay #11 (NO washout), U87-CD4-CXCR4 cells, % cell death @ 5mM compound; type: toxicity, cell-based; details: human, u87-cd4-cxcr4, 5000 µM
[6] = MMV: MTT Cytotoxicity Assay Day 7 pi of Assay #10 (NO washout), U87-CD4-CCR5 cells, % cell death @ 5mM compound; type: toxicity, cell-based; details: human, u87-cd4-ccr5, 5000 µM
[7] = MMV: MTT Cytotoxicity Assay Day 7 pi of Assay #7 (compound washed out Day 1 pi), U87-CD4-CXCR4 cells, % cell death @ 5mM compound; type: toxicity, cell-based; details: human, u87-cd4-cxcr4, 5000 µM
[8] = test system: Human immunodeficiency virus 1; assay: MMV: HIV CXCR4-tropic env NL4-3 pseudovirus assay produces luciferase signal in lieu of replicating viral particles Day 3 pi, U87-CD4-CXCR4, % inhibition at 5 mM compound; type: functional; parameters: dose or concentration left out as unconfirmed; details: Human immunodeficiency virus 1, NL4-3, U87.CD4.CXCR4, 72 h
[9] = test system: Human immunodeficiency virus 1; assay: MMV: HIV JRFL CCR5-tropic replication-competent virus, virus & compound washed out Day 1 pi, P24 ELISA Day 7 pi, U87-CD4-CCR5, % inhibition at 5 mM compound; type: functional; parameters: dose or concentration left out as unconfirmed; details: Human immunodeficiency virus 1, JR-FL
[10] = test system: Human immunodeficiency virus 1; assay: MMV: HIV NL4-3 CXCR4-tropic replication-competent virus, virus & compound washed out Day 1 pi, P24 ELISA Day 7 pi, U87-CD4-CXCR4, % inhibition at 5 mM compound; type: functional; parameters: dose or concentration left out as unconfirmed; details: Human immunodeficiency virus 1, NL4-3, U87.CD4.CXCR4

Structure (SMILES) | inhibition [1] [%] | % Cell Death [2] | % Cell Death [3] | % Cell Death [4] | % Cell Death [5] | % Cell Death [6] | % Cell Death [7] | inhibition [8] [%] | inhibition [9] [%] | inhibition [10] [%]
CC1(c2ccccc2)Nc2ccccc2-c2nc3ccccc3n21 (stereo unspecified) | 4 | 24 | -21 | 10 | -43 | 29 | -19 |  |  | 
COc1ccccc1C(=O)ON=C(N)Cc1cccc2ccccc12 | 0 | 47 | -17 | 23 | -11 | 43 | 42 | 1 |  | 
COc1ccc(C2Sc3ccccc3N=C3C2=C(O)c2ccccc23)cc1 (stereo unspecified) |  | 10 | 7 | 0 | 3 | 17 | -32 |  | 7 | 7
CCN(CC)CCNc1ccnc2cc3ccccc3cc12.O=P(O)(O)O |  | 28 | -26 | 33 | -36 | 10 | -15 |  | 9 | -1
CCCC(c1nnnn1C1CCCCC1)N1CCN(C(=O)c2ccco2)CC1.Cl (stereo unspecified) | 7 | 12 | -14 | -3 | 34 | -2 | -21 |  |  | 
O=C1c2ccc3c4c(ccc(c24)C(=O)N1CCCCO)C(=O)N(CCCCO)C3=O | 2 | 27 | 16 | 39 | -30 | 61 | -43 |  |  | 
OC1CCCCC1C1(NC(=S)Nc2ccccc2)CCCCC1 (stereo unspecified) | 8 | 11 | -5 | 23 | -25 | 4 | 29 |  | 7 | 
CSC1=NC(=Nc2c(C)cccc2C)C2(CCC(C(C)(C)C)CC2)N1c1ccc(Cl)cc1 (stereo unspecified) | 9 | 6 | 1 | 3 | 0 | 12 | -6 |  |  | 
Cc1c(C)n(CC(O)CNC2CCCCC2C)c2ccccc12 (stereo unspecified) | 7 | 18 | -11 | -17 | -68 | -14 | -17 |  |  | 
CCCn1c(=N)c(C(=O)NC2CCCCC2)cc2c(=O)n3cccc(C)c3nc21 | 4 | 35 | 0 | 29 | -51 | 43 | -17 |  |  | 
Cc1cccc(N2C(=O)C3C(C2=O)C2(c4ccccc4)C(=O)C3(c3ccccc3)C(c3ccc4c(c3)OCO4)=C2c2ccc3c(c2)OCO3)c1 (stereo unspecified) |  | 35 | 4 | 4 | -20 | 0 | -2 |  |  | 3
COc1ccc(NC(=O)C2c3ccccc3C(=O)N(CC(C)C)C2c2cccs2)cc1 (stereo unspecified) |  | 13 | -1 | 16 | -27 | -9 | -38 |  | 3 | 6
OC(Cn1nnc2ccccc21)Cn1c2ccc(Br)cc2c2cc(Br)ccc21 (stereo unspecified) |  | -29 | 2 | 15 | 18 | 27 | 8 |  | -2 | 1
CCN(CC)CCn1c(=N)n(CC(O)c2ccc(Cl)c(Cl)c2)c2ccccc21.Cl (stereo unspecified) | 0 | 4 | 14 | 18 | 52 | -29 | 20 | 10 |  | 
COc1cccc(Cn2c(Oc3ccccc3)nc3c2c(=O)n(C)c(=O)n3C)c1 | 9 | 15 | 32 | -1 | 32 | 39 | 3 |  |  | 
Cc1ccc(S(=O)(=O)c2c(COC(=O)c3cccc(C)c3)c(-c3ccccc3)nn2C)cc1 | 7 | 22 | 5 | 27 | 31 | 16 | 22 |  | 5 | 
O=C(O)C(=O)O.Oc1ccccc1CN1CCN(C(c2ccccc2)c2ccccc2)CC1 | 0 | 12 | 2 | 4 | 56 | 22 | 28 |  |  | 
CC(C)CCNCC(O)Cn1c2ccccc2c2ccccc21.Cl (stereo unspecified) | 1 | 32 | -10 | 6 | -6 | -11 | -6 |  |  | 
CCCc1c(C)nc2ccc(Br)cc2c1O |  | 29 | -7 | 4 | 27 | 25 | 7 |  |  | 5
Nc1ccn([C@@H]2O[C@H](CO)[C@@H](O)[C@H]2O)c(=O)n1 [CYTIDINE] | 6 | 28 | -9 | -30 | 0 | 26 | 24 |  |  | 
COCCn1c(C)nc2ccccc2c1=O |  | 19 | -8 | 23 | 32 | 14 | 11 |  | 3 | 2
O=C(O)C1Cc2c([nH]c3ccccc23)C(c2ccc(Cl)cc2Cl)N1 (stereo unspecified) |  | 11 | 15 | 10 | -2 | 27 | -34 |  |  | 0
CCOc1cc(Cl)c(C(C)NC(=O)c2ccccc2)cc1OCC (stereo unspecified) |  | 34 | -4 | 28 | 90 | 15 | -6 |  | 0 | 1

— ChEMBL document CHEMBL3301472, “MMV Malaria Box HIV and cytotoxicity screening”
